Assays:
[1] = target: T1, collagenase obtained from a culture of human synovial fibroblasts (Homo sapiens, UniProt P03956); assay: in vitro inhibition of collagenase (microtitre plate assay, 14C-acetylated collagen type I from rat tail tendons as substrate); format: biochemical; conditions: human synovial fibroblast collagenase, trypsin-activated; 14C-acetylated collagen type I substrate
T1 construct: endogenous in cells; host or cells: culture of human synovial fibroblasts (conditioned medium)
T1 sequence (P03956 100-469): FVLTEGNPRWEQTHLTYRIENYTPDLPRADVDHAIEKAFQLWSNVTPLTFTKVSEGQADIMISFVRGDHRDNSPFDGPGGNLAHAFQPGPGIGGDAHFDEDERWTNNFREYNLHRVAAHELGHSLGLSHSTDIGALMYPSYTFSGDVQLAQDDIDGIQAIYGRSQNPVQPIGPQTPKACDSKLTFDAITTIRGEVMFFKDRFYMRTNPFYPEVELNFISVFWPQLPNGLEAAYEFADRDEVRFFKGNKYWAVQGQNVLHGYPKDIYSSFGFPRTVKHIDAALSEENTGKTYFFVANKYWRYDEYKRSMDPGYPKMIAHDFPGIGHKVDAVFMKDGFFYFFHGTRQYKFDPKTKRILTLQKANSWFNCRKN
Experimental: Collagenase activity was measured using ^14 C-acetylated collagen type I from rat tail tendons as the substrate and employing the microtitre plate assay method of Johnson-Wint, B. Anal. Biochem. (1980), 104, 175. The IC50 is that concentration of a compound of formula I of the invention in the enzyme digestion which reduces substrate cleavage and solubilization to 50% of that achieved by the enzyme alone.
The results obtained in the foregoing test with representative compounds of this invention are compiled in the Table I hereinafter: […]

female rats = assay: in vivo type II collagen/Freund's incomplete adjuvant rat test: hind paw inflammation and radiological change; conditions: 20 mg kg^-1 twice daily for 12 days via jugular vein catheter
Experimental: Groups of female rats received an intradermal injection into the shaved backs of 10×0.1 ml of an emulsion of type II collagen/Freund's incomplete adjuvant. Ten days later the test compound was administered twice daily at a dosage of 20 mg kg^-1 via indwelling jugular vein catheters; dosing was continued for 12 days. Groups of rats which received the intradermal injection, but which were not treated with test compounds, served as the control. The incidence of hind paw inflammation was assessed visually at intervals throughout the test and was expressed as the proportion of the group showing signs of erythema and/or swelling. Radiological change in the ankle region of the hind paws was assessed at the termination of the test and was quantified using an arbitrary scale of from 0=normal to 6=severe change, results being expressed as group means. Statistical analysis was performed using the Mann-Whitney "U" test.

Compound	IC50 [1] [nM]	Inflammation day 4 (female rats; proportion of group showing erythema and/or swelling of hind paw, Control 8/11)	Radiological scores, Tarsus (female rats; scale 0=normal to 6=severe change, group mean at termination, Control 1.75 ± 0.45)	Radiological scores, Talus (female rats; scale 0=normal to 6=severe change, group mean at termination, Control 2.28 ± 0.53)
CNC(=O)[C@H](CC(C)C)NC(=O)C(CC(C)C)CP(=O)(O)CN1C(=O)c2cccc(N)c2C1=O (mixture of isomers) [Compound B, [(3-aminophthalimido)methyl][(RS)-4-methyl-2-[[(S)-3-methyl-1-(methylcarbamoyl)butyl]carbamoyl]pentyl]phosphinic acid]	600			
CC(C)CC(CP(=O)(O)CNC(=O)[C@H](CC(C)C)NC(=O)[C@@H]1CCCN1C(=O)OCc1ccccc1)C(=O)N[C@@H](CC(C)C)C(=O)N[C@@H](C)C(=O)O (single isomer, unassigned) [Compound A, N-[N-[(R or S)-2-[[[[[N-[1-[(benzyloxy)carbonyl]-L-prolyl]-L-leucyl]amino]methyl]hydroxyphosphinyl]methyl]-4-methylvaleryl]-L-leucyl]-L-alanine]	56			
CC(C)CC(CP(=O)(O)CN1C(=O)c2cccc3cccc(c23)C1=O)C(=O)NC1CCCCCCCCCCNC1=O (single isomer, unassigned) [Compound D, [(R or S)-4-methyl-2-[[(R or S)-2-oxo-3-azacyclotridecyl]carbamoyl]pentyl](1,8-naphthalenedicarboximidomethyl)phosphinic acid]	110	3/12	0.64 ± 0.37	0.86 ± 0.34
CC(C)C[C@@H](CP(=O)(O)Cn1c(=O)[nH]c2ccccc2c1=O)C(=O)N[C@@H]1CCCCCCCCCCNC1=O (single isomer, unassigned) [Compound E, [[1,4-dihydro-2,4-dioxo-3(2H)-quinazolinyl]methyl][(R or S)-4-methyl-2-[[(R or S)-2-oxo-3-azacyclotridecyl]carbamoyl]pentyl]phosphinic acid]	220			
CNC(=O)[C@H](CC(C)C)NC(=O)C(CC(C)C)CP(=O)(O)CN1C(=O)c2cccc3cccc(c23)C1=O (stereo partly drawn) [Compound C, [(RS)-4-methyl-2-[[(S)-3-methyl-1-(methylcarbamoyl)butyl]carbamoyl]pentyl](1,8-naphthalendicarboximidomethyl)phosphinic acid]	160			
